Patent US7495004B2, “Purine derivatives as liver X receptor agonists” (Glaxo Group Limited, priority 2002, dated 2009)

Key:
[1] = target: T1, human LXRβ ligand binding domain (Homo sapiens, UniProt P55055); assay: Assay for LXRβ activity (HTRF, SRC-1 peptide recruitment); type: biochemical; conditions: 1 μM; over a background reading of 10000 fluorescence units
T1 construct: made in house; host or cells: E. coli BL21 (DE3), vector pRSETa
T1 sequence (P55055 184-460 limits assumed): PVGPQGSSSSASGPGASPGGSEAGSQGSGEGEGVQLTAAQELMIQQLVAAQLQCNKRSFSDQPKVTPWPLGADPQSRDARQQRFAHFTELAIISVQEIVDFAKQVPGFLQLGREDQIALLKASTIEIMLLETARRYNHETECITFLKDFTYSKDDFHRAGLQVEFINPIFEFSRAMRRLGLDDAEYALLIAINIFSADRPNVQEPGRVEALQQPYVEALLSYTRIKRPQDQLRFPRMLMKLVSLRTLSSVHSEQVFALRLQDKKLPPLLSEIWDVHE
T1 sequence (Q15788 676-700 partner limits assumed): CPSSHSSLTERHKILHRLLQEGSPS
Experimental: A modified polyhistidine tag (MKKGHHHHHHG) (SEQ ID No. 1) was fused in frame to the human LXRβ ligand binding domain (amino acids 185-461 of Genbank accession number U07132) and subeloned into the expression vector pRSETa (Invitrogen) under the control of an IPTG inducible T7 promoter. The human LXRβ ligand binding domain was expressed in E. coli strain BL21 (DE3). Ten-liter fermentation batches were grown in Rich PO4 media with 0.1 mg/mL Ampicillin at 25° C. for 12 hours, cooled to 9° C. and held at that temperature for 36 hours to a density of OD600=14. At this cell density, 0.25 mM IPTG was added and induction proceeded for 24 hours at 9° C., to a final OD600=16. Cells were harvested by centrifugation (20 minutes, 3500 g, 4° C.), and concentrated cell slurries were stored in PBS at −80° C.
Typically 25-50 g of cell paste is resuspended in 250-500 mL TBS, pH 8.0 (25 mM Tris, 150 mM NaCl). Cells are lysed by passing 3 times through an APV Rannie MINI-lab homogenizer, and cell debris is removed by centrifugation (30 minutes, 20,000 g, 4° C.). […] After washing to baseline absorbance with equilibration buffer, the column is washed with approximately one column volume of TBS pH […] containing 95 mM imidazole. […] After washing to baseline absorbance with the dilution buffer the protein is eluted with a gradient from 50-500 mM NaCl. […]

[2] = target: T2, LXRα ligand binding domain (Homo sapiens, UniProt Q13133); assay: Assay for LXRα activity (HTRF, SRC-1 peptide recruitment); type: biochemical; conditions: 1 μM; over a background reading of 10000 fluorescence units
T2 construct: His tag; made in house
T2 sequence (Q13133 183-447): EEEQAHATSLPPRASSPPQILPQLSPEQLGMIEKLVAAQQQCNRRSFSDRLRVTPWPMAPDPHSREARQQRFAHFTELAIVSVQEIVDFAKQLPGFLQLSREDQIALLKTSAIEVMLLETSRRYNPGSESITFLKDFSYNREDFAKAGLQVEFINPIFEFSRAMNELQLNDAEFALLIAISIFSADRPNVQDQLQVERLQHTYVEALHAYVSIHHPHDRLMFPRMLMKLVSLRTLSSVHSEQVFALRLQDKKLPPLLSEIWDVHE
T2 sequence (Q15788 676-700 partner): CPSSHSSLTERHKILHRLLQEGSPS
Experimental: The assay for LXRα was run according to the procedures of Example 1, above using his-tagged LXRα ligand binding domain (amino acids 183-447 of Genbank accession number U22662, with the 14th amino acid corrected to A from R). Percentage control is relative to 24(S),25-epoxycholesterol.
In this assay 1 μM 24(S),25-epoxycholesterol gave a reading of 20000 fluorescence units over a background reading of 10000 fluorescence units.

## C[C@H](CC[C@@H]1OC1(C)C)[C@H]1CC[C@H]2[C@@H]3CC=C4C[C@@H](O)CC[C@]4(C)[C@H]3CC[C@]12C [24(S),25-epoxycholesterol]
[1]
  reading in LXRβ assay: 20000 fluorescence units
[2]
  reading in LXRα assay: 20000 fluorescence units
